Laboratory results published in article PMC12752627, “Discovery of a Potent and Selective TEAD Degrader with Durable Degradation Activity” (Advanced Science, 2025).

Key:
TEAD4 = target: T1, TEAD4 (Homo sapiens, UniProt Q15561); test: HiBiT degradation assay, HEK293T HiBiT-TEAD4; assay type: cell-based; conditions: 6 h
T1 construct: endogenous in cells; host or cells: HEK293T HiBiT knock-in
Experimental: HiBiT cells were inoculated into 96‐well flat‐bottomed tissue culture plates at a density of 50 000 cells per well, followed by adding degraders into the wells using the I‐DOT dispenser. After 6 h of incubation, the cells were lysed and assayed for degradation using the Nano‐Glo HiBiT Lysis Assay System (Promega, #N3030). Luminescence signals were read using an Envision plate reader (Revvity) and the data were analyzed using GraphPad Prism 9.5 software.
The ribonucleoprotein (RNP) complex was prepared by mixing 2 µg of NLS‐Cas9‐EGFP nuclease (Novoprotein, #E379‐01A), 50 pmol of sgRNA, 10 µL of electrotransfer solution, and 50 pmol of designed donor DNA, then incubated for 10 min at room temperature. One million HEK293T cells were resuspended in 10 µL of electrotransfection solution and mixed with 10 µL of the RNP complex. Electroporation was performed using a Celetrix SP100 electroporator at 480 V. After electroporation, the cells were transferred to antibiotic‐free DMEM complete medium for overnight culture. The following day, EGFP‐positive cells were sorted using a Sony MA 900 cell sorter, plated in a 96‐well cell culture plate (Servicebio, #CCP‐96H), and cultured for 4 weeks. After this period, positive clones were screened using the Nano‐Glo HiBiT Lytic Detection system (Promega, #N3030).

HOS cells = test: Cell viability assay (CTG, 72 h) HOS; assay type: cell-based; conditions: Homo sapiens, HOS, 72 h, 3-day compound treatment
Experimental: Cells were seeded at a density of 1000 cells per well in 96‐well flat‐bottomed cell culture plates and cultured overnight at 37 °C with 5% CO2 to allow for cell attachment. The following day, different concentrations of compounds were added using an I‐DOT dispenser. After 72 h, 25 µL of CellTiter‐Meiluncell Luminescent Cell Viability Reagent (Meilunbio, #PWL111‐2) was added and incubated for 15 min at room temperature. Luminescence signals were then measured using an Envision plate reader (Revvity). Data were analyzed using GraphPad Prism 9.5 software.^[ [30] ^]

T1 sequence (Q15561 whole entry): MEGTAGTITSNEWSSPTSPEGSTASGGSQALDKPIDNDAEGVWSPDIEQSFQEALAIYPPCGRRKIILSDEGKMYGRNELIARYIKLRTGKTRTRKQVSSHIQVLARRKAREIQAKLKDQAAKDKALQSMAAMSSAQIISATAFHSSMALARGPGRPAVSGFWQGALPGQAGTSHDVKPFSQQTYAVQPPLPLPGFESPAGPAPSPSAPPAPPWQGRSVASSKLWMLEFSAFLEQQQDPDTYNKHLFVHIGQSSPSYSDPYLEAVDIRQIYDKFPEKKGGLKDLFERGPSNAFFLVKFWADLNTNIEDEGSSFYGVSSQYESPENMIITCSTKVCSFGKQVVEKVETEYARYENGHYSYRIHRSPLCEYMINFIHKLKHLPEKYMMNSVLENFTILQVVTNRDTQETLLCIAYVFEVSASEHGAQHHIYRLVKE

With `CNC(=O)c1cc2c(c(F)c1-c1c(Cl)c(F)cc3c1C[C@@](CN[C@H]1CC[C@H](C(=O)N4CCC(CC5CCN(C(=O)COc6ccc(N7CCC(=O)NC7=O)c(C)c6)CC5)CC4)CC1)(c1ccccc1)O3)[C@@H](O)[C@@H](C)C2` [KG-FP-003] the DC50 (TEAD4) was 7 ± 5 nM, the “TEAD4 Dmax” value (TEAD4) was “≈ 90%” and the Dmax (TEAD4; HEK-293T) was 88 ± 6%. For the same compound, the IC50 (HOS cells) was 1.2 ± 1.5 nM.
